Results on eleven molecules are retold here after patent publication US20100292210A1, “Novel Compounds for A-Beta-Related Pathologies” (AstraZeneca AB, priority 2009, published 2010).

The experiment concerns Aβ42 release. The experiment in a line: Aβ42 release from HEK cells stably expressing APPswe, Meso Scale Discovery electrochemiluminescence assay. Type of experiment: cell-based. The settings on record: Homo sapiens, HEK293; HEK cell line stably expressing APPswe; 4-6 h incubation with test compound; Aβ42 secreted to cell medium; read-out: pIC50 values of Aβ42 release (converted). As to the method:
The level of activity of the compounds on Aβ formation was tested using the following method:
Compounds were diluted in 100% DMSO and stored at […] prior to use. Human Embryonic Kidney (HEK) cell line stably expressing APP with the Swedish mutation (APPswe) were cultured using Dulbecco's Modified Eagles medium (DMEM) supplied with […] glucose, Na-pyruvate and GlutaMAX with 10% FBS, 100 U/ml penicillin-streptomycin (PEST) respectively, 1×non-essential amino acids (NEAA), […], 100 μg/ml Zeocine. Cells at about 80% confluence were washed with PBS, detached from culture flasks using 1×Trypsin/EDTA diluted in PBS, re-suspended in cell media and plated in 384-well poly-d-lysine coated cell culture plates at about 10000-15000 cells/well, in 25 μL cell media. Optionally, cryo-preserved cells (frozen and stored at −140° C. in 90% cell media and 10% DMSO) were thawed, washed and plated as above. Next the cells were incubated for 15-24 h at 37° C. and 5% CO2, after which cell medium was changed. Fresh medium containing test compound diluted ×200 from prepared compound plate was added to the cells before further incubation for 4-6 hours at 37° C. and 5% CO2. After incubation with test compound the amount of Aβ peptides, including Aβ42, Aβ40, Aβ39, Aβ38 and Aβ37, secreted to cell medium was analyzed using the electrochemiluminescence assay technology from Meso Scale Discovery Technology, in combination with specific antibodies raised against the different Aβ peptides. Potential cytotoxic effects of the compounds were usually assayed by measuring the ATP content (ViaLight) from cell lysate.

A value given as a limit tells only on which side of the number the result lay.

For `COc1nc(Nc2ccc3c(n2)O[C@H](c2ccccc2)CN(C)C3)ccc1-c1cnn(C)c1` [Example 50, (R)—N-(6-Methoxy-5-(1-methyl-1H-pyrazol-4-yl)pyridin-2-yl)-4-methyl-2-phenyl-2,3,4,5-tetrahydropyrido[3,2-f][1,4]oxazepin-8-amine], the IC50 was 7.94 nM.

Take `COc1cc(Nc2ccc3c(n2)OC(C2CC2)CN(C)C3)ccc1-n1cnc(C)n1` (centres unmarked) [Example 51, 2-Cyclopropyl-N-(3-methoxy-4-(3-methyl-1H-1,2,4-triazol-1-yl)phenyl)-4-methyl-2,3,4,5-tetrahydropyrido[3,2-f][1,4]oxazepin-8-amine]: the IC50 is 501 nM.

On to `COc1cc(Nc2ccc3c(n2)OC(c2cccc(C)n2)CN(C)C3)ccc1-n1cnc(C)n1` (centres unmarked) [Example 52, N-(3-Methoxy-4-(3-methyl-1H-1,2,4-triazol-1-yl)phenyl)-4-methyl-2-(6-methylpyridin-2-yl)-2,3,4,5-tetrahydropyrido[3,2-f][1,4]oxazepin-8-amine], for which the IC50 was 398 nM.

In the case of `COc1nc(Nc2ccc3c(n2)OC(c2cccc(C)n2)CN(C)C3)ccc1-c1cnn(C)c1` (centres unmarked) [Example 53, N-(6-Methoxy-5-(1-methyl-1H-pyrazol-4-yl)pyridin-2-yl)-4-methyl-2-(6-methylpyridin-2-yl)-2,3,4,5-tetrahydropyrido[3,2-f][1,4]oxazepin-8-amine], the IC50 was 50.1 nM.

On to `Cc1cccc(C2CN(C)Cc3ccc(Nc4ccc(-c5cnn(C)c5)nc4)nc3O2)n1` (centres unmarked) [Example 54, 4-Methyl-N-(6-(1-methyl-1H-pyrazol-4-yl)pyridin-3-yl)-2-(6-methylpyridin-2-yl)-2,3,4,5-tetrahydropyrido[3,2-f][1,4]oxazepin-8-amine], for which the IC50 was above 3160 nM.

Turning to `COc1cc(Nc2ccc3c(n2)O[C@H](c2ccccc2)CNC3)ccc1-n1cnc(C)c1` [Example 55, (R)—N-(3-Methoxy-4-(4-methyl-1H-imidazol-1-yl)phenyl)-2-phenyl-2,3,4,5-tetrahydropyrido[3,2-f][1,4]oxazepin-8-amine], the IC50 was 31.6 nM.

On to `COc1nc(Nc2ccc3c(n2)O[C@H](c2ccccc2)CNC3)ccc1-c1cnn(C)c1` [Example 56, (R)—N-(6-Methoxy-5-(1-methyl-1H-pyrazol-4-yl)pyridin-2-yl)-2-phenyl-2,3,4,5-tetrahydropyrido[3,2-f][1,4]oxazepin-8-amine], for which the IC50 was 10 nM.

As for `Cn1cc(-c2ccc(Nc3ccc4c(n3)O[C@H](c3ccccc3)CNC4)nc2)cn1` [Example 57, (R)—N-(5-(1-Methyl-1H-pyrazol-4-yl)pyridin-2-yl)-2-phenyl-2,3,4,5-tetrahydropyrido[3,2-f][1,4]oxazepin-8-amine], the IC50 was 126 nM.

Take `CN1Cc2ccc(Nc3ccc(-c4cnn(C)c4)nc3)nc2O[C@H](c2ccccc2)C1` [Example 58, (R)-4-Methyl-N-(6-(1-methyl-1H-pyrazol-4-yl)pyridin-3-yl)-2-phenyl-2,3,4,5-tetrahydropyrido[3,2-f][1,4]oxazepin-8-amine]: the IC50 is 316 nM.

As for `CN1Cc2ccc(Nc3ccc(-c4cnn(C)c4)cc3)nc2O[C@H](c2ccccc2)C1` [Example 59, (R)-4-Methyl-N-(4-(1-methyl-1H-pyrazol-4-yl)phenyl)-2-phenyl-2,3,4,5-tetrahydropyrido[3,2-f][1,4]oxazepin-8-amine], the IC50 is 79.4 nM.

As to `CN1Cc2ccc(Nc3ccc(-n4ccnc4CO)cc3)nc2O[C@H](c2ccccc2)C1` [Example 60, (R)-(1-(4-(4-Methyl-2-phenyl-2,3,4,5-tetrahydropyrido[3,2-f][1,4]oxazepin-8-ylamino)phenyl)-1H-imidazol-2-yl)methanol], the IC50 was 31.6 nM.
